Test results reported in US11203608B2, “Platinum-containing compounds, and related compositions and uses thereof” (Massachusetts Institute of Technology, priority 2019, dated 2021).

Experiments:
[1] = test system: PC3 human prostate adenocarcinoma; experiment: Cell growth, resazurin assay, PC3; assay type: cell-based; details: 96-h exposure (table title)
Protocol: (§4) Cells were cultured in 10 mL of Advanced DMEM/F12 (ADMEM/F12), supplemented with 5% FBS, 2 mM GlutaMAX, and 1% Penicillin-Streptomycin in 10 cm tissue culture plates. Cells were then plated into 96-well plates with about 2.5×10^3 cells per well. Cells were plated with 200 μL per well of ADMEM/F12 supplemented with 5% FBS, 2 mM GlutaMAX, and 1% Penicillin-Streptomycin. Cells were treated with dose responses of doxorubicin, oxaliplatin, or doxaliplatin upon plating. The cells were then cultured for 72 hours following drug treatment, and cell growth was measured by resazurin assay.

[2] = test system: OVCAR8 human ovarian cancer cell line; experiment: Cell growth, resazurin assay, OVCAR8; assay type: cell-based; details: 72-h exposure
Protocol: as §4

[3] = test system: HT-29 human colorectal adenocarcinoma; experiment: Cell growth, resazurin assay, HT-29; assay type: cell-based; details: 96-h exposure (table title); read-out: IC50 HT-29 (colon)
Protocol: as §4

[4] = test system: doxorubicin-resistant A2780ADR human ovarian cancer cell line; experiment: Cell growth, resazurin assay, A2780ADR; assay type: cell-based; details: 72-h exposure
Protocol: as §4

[5] = test system: APC−/−; TdTomato+ (A-tdt) organoids; experiment: Viability of A-tdt murine colorectal cancer organoids, resazurin assay; assay type: cell-based; details: 72-h exposure (table title); read-out: IC50 against A-tdt organoids
From the text: (§1) Colonic crypts were isolated and colon organoids were generated from the following mouse genotypes on a C57Bl/6 background: 1. Rosa-LSL-TdTomato (hereafter LSL-tdt), 2. P53^f1/f1; LSL-tdt, and 3. LSL-KRAS^G12D/WT; P53^fl/fl; LSL-tdt mice. Subsequently, the pSECC-APC plasmid (carrying Cre, Cas9, and sgAPC) was transfected into each of the above three genotypes of colon organoids. This transfection strategy generated, in a single step, the following colorectal cancer organoids, including 1. APC^−/−; TdTomato^+ (A-tdt), 2. APC^−/−; P53^−/−; TdTomato^+ (AP-tdt), and 3. APC^−/−; KRAS^G12D/WT; P53^−/−; TdTomato^+ (AKP-tdt). Organoids of the desired genotype were selected for by Wnt/Rspo withdrawal for APC^−/−, Nutlin-3 addition for P53^−/−, and EGF withdrawal for KRAS^G12D.
(§2) Twenty four hours after seeding the organoids, a media change was performed and dose responses of oxaliplatin, doxorubicin and doxaliplatin were added. […] Organoids were cultured in Advanced DMEM/F12 supplemented with 2 mM GlutaMAX, 1% Penicillin-Streptomycin, 2% B27, and Y-27632 (10 μM).

[6] = test system: APC−/−; P53−/−; TdTomato+ (AP-tdt) organoids; experiment: Viability of AP-tdt murine colorectal cancer organoids, resazurin assay; assay type: cell-based; details: 72-h exposure (table title); read-out: IC50 against AP-tdt organoids
From the text: as §1, §2

[7] = test system: OVCAR8-OXR oxaliplatin-resistant human ovarian cancer cell line; experiment: Cell growth, resazurin assay, OVCAR8-OXR; details: 72-h exposure; for Fold Resistance (IC50, OVCAR8OXR vs OVCAR8): based on IC50 values
Protocol: Cells were cultured in 10 mL of Advanced DMEM/F12 (ADMEM/F12), supplemented with 5% FBS, 2 mM GlutaMAX, and 1% Penicillin-Streptomycin in 10 cm tissue culture plates. Cells were then plated into 96-well plates with about 2.5×10^3 cells per well. Cells were plated with 200 μL per well of ADMEM/F12 supplemented with 5% FBS, 2 mM GlutaMAX, and 1% Penicillin-Streptomycin. […] The cells were then cultured for 72 hours following drug treatment, and cell growth was measured by resazurin assay.

U2OS human osteosarcoma = experiment: Cell growth, resazurin assay, U2OS; assay type: cell-based; details: 96-h exposure (table title); read-out: IC50 U2OS (bone)
Protocol: as §4

[8] = test system: HL60 human leukemia cell line; experiment: Cell growth, resazurin assay, HL60; assay type: cell-based; details: 96-h exposure (table title)
Protocol: as §4

[9] = test system: A-tdt, AP-tdt, and AKP-tdt murine colorectal cancer organoids; experiment: Cellular toxicity across the A-tdt, AP-tdt and AKP-tdt organoid series; assay type: cell-based; details: series of A-tdt
From the text: as §1
Twenty four hours after seeding the organoids, a media change was performed and dose responses of oxaliplatin, doxorubicin and doxaliplatin were added. Forty eight hours after treatment, cell growth was evaluated by resazurin assay. Organoids were cultured in Advanced DMEM/F12 supplemented with 2 mM GlutaMAX, 1% Penicillin-Streptomycin, 2% B27, and Y-27632 (10 μM).

[10] = test system: A549 human lung carcinoma; experiment: Cell growth, resazurin assay, A549; assay type: cell-based; details: 96-h exposure (table title)
Protocol: as §4

[11] = test system: A2780 human ovarian cancer cell line
Protocol: ICP-MS was performed on an Agilent 7900 ICP-MS in helium mode.
The cells in a six-well plate were treated with oxaliplatin, doxaliplatin, or a mixture of doxorubicin and oxaliplatin at indicated concentration in 2 mL of Advanced DMEM/F12 (ADMEM/F12), supplemented with 5% FBS, 2 mM GlutaMAX, and 1% Penicillin-Streptomycin. After three hours, the media were removed. The cells were washed with xl PBS buffer containing EDTA (100 μM, 4 mL×2). To each well, MilliQ water (1.0 mL) was added. After 15 min, the cells were suspended. A portion of the resulting cell lysate (900 μL) was transferred to an Eppendorf tube. The samples were frozen in liquid nitrogen and thawed at room temperature. This procedure was repeated for three times. The insoluble lysate was pelleted (10000 rpm for 10 min). […] Pierce 660 nm Protein solution (200 μL) was added to each well. An aliquot of the lysate (14.2 μL) was added to each well. The plate was shaken and read on a plate reader. The remaining samples were frozen at liquid nitrogen temperature and lyophilized. The dried material was digested with Aristar® ultrapure concentrated nitric acid (70%) at 70° C. for one hour. An aliquot of this solution (142 μL) was mixed with molecular biology grade water (2000 μL) and a terbium internal standard (40 μL, 100 ppb). The platinum content was then determined using an Agilent 7900 ICP-MS in helium mode. The concentration of platinum in the cells was normalized to measured protein concentration described above.

[12] = test system: APC−/−; KRASG12D/WT; P53−/− (AKP) organoids; experiment: Viability of AKP murine colorectal cancer organoids; assay type: cell-based
From the text: (§3) To generate 4. APC^−/−; KRAS^G12D/WT; P53^−/−; (AKP) and 5. APC^−/−; KRAS^G12D/WT; P53^−/−; MSH2^−/− (AKP-MSH2) colon cancer organoids, colonic crypts were isolated and colon organoids were generated from the following mouse genotypes on a C57Bl/6 background: 4. LSL-KRAS^G12D/WT; P53^fl/fl mice and 5. LSL-KRAS^G12D; P53^fl/fl; MSH2^fl/fl mice. Subsequently, the pSECC-APC plasmid (carrying Cre, Cas9, and sgAPC) was transfected into each of the above two genotypes of colon organoids. Following pSECC-APC transfection, Wnt/Rspo withdrawal was performed and surviving (APC^−/−) single organoids were cloned and PCR genotyped for Cre mediated deletion of p53 and/or MSH2, and for Cre mediated activation of oncogenic KRAS^G12D.
as §2

[13] = test system: APC−/−; KRASG12D/WT; P53−/−; MSH2−/− (AKP-MSH2) organoids; experiment: Viability of AKP-MSH2 murine colorectal cancer organoids; assay type: cell-based
From the text: as §3, §2

[14] = test system: MDA-MB-231 human breast adenocarcinoma; experiment: Cell growth, resazurin assay, MDA-MB-231; assay type: cell-based; details: 96-h exposure (table title)
Protocol: as §4

[15] = test system: APC−/−; KRASG12D/WT; P53−/−; TdTomato+ (AKP-tdt) organoids; experiment: Viability of AKP-tdt murine colorectal cancer organoids, resazurin assay; assay type: cell-based; details: 72-h exposure (table title); read-out: IC50 against AKP-tdt organoids
From the text: as §1, §2

Work on `COc1cccc2c1C(=O)c1c(O)c3c(c(O)c1C2=O)CC(O)(C(=O)CO)CC3OC1CC(N)C(N)C(C)O1.O=C1[O][Pt][O]C1=O` (stereo not shown) [DoxPt, Doxaliplatin] yielded an IC50 [1] of 92 nM, an IC50 [2] of 140 ± 10 nM and an IC80 [2] of 370 ± 20 nM. For the same molecule, the IC50 [3] was 330 nM, the IC50 [4] was 72 nM and the IC90 [4] was 490 nM. The IC95 [4] was 0.67 µM, the IC50 [5] was 460 nM and the IC50 [6] was 410 nM. The “Fold Resistance (IC50, OVCAR8OXR vs OVCAR8)” value [7] was 1.0 fold, the “Fold Resistance (IC50, OVCAR8OXR vs OVCAR8)” value ([7]; listed as doxaliplatin) was “no change in the IC50 value” and the “Fold Resistance (IC80, OVCAR8OXR vs OVCAR8)” value ([7]; based on IC80 values) was 0.6 fold. The IC50 ([7]; read-out: IC50 OVCAR8OXR) was 140 ± 10 nM, the IC80 ([7]; read-out: IC80 OVCAR8OXR) was 230 ± 10 nM and the IC50 (U2OS human osteosarcoma) was 52 nM. The IC50 [8] was 160 nM, the “Cellular toxicity relative to oxaliplatin” value [9] was “three to ten-fold higher cellular toxicity than oxaliplatin” and the IC50 [10] was 100 nM. For the same molecule, the “Platinum concentration in treated cells relative to oxaliplatin-treated cells” value [11] was “approximately ten times higher than in oxaliplatin-treated cells”, the IC50 ([12]; 72-h exposure, read-out: IC50 against AKP organoids) was 110 nM and the “Potency relative to oxaliplatin (by IC50)” value ([12]; AKP organoids) was 13 fold. For the same molecule, the IC50 ([13]; 72-h exposure, read-out: IC50 against AKP-MSH2 organoids) was 78 nM, the “Potency relative to oxaliplatin (by IC50)” value ([13]; AKP-MSH2 organoids) was 28 fold and the IC50 [14] was 110 nM. It also gave an IC50 [15] of 430 nM.
